In the supplement of paper PMC6045584:
± gives the standard deviation of the averaged measurements.

Columns and labels:
[1] = compound: CC(=O)NCC(=O)N1[C@@H]2CC[C@H]1c1ccc(Nc3ncc(C(F)(F)F)c(NC4CCC4)n3)cc12; assay: surviving fraction relative to DMSO-only wells; higher = less growth inhibition; details: exposure time: 5 days
How it was run: (§1)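 After seeding at 250–500 cells per well in 384-well plates and a 24-hour wait, log-phase tumour cell lines were exposed without interruption for five days to inhibitors at 0.5, 1, 5, 10, 50, 100, 500 and 1000 nM. CellTiter-Glo luminescence was recorded after 10 minutes at room temperature. Viability is reported as surviving fraction, the luminescence normalised to the median of DMSO-only wells.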

PACLITAXEL [2] = compound: T1, CC(=O)O[C@H]1C(=O)[C@@]2(C)[C@H]([C@H](OC(=O)c3ccccc3)[C@]3(O)C[C@H](OC(=O)[C@H](O)[C@@H](NC(=O)c4ccccc4)c4ccccc4)C(C)=C1C3(C)C)[C@]1(OC(C)=O)CO[C@@H]1C[C@@H]2O [PACLITAXEL]; assay: as above; details: exposure time: 5 days
How it was run: as §1

[3] = compound: CC(=O)c1c(C)c2cnc(Nc3ccc(N4CCNCC4)cn3)nc2n(C2CCCC2)c1=O; assay: as above; details: exposure time: 5 days
How it was run: as §1

CAMPTOTHECIN [4] = compound: T2, CC[C@@]1(O)C(=O)OCc2c1cc1n(c2=O)Cc2cc3ccccc3nc2-1 [CAMPTOTHECIN]; assay: as above; details: exposure time: 5 days
How it was run: as §1

YM155 [5] = compound: T3, COCC[n+]1c2c(n(Cc3cnccn3)c1C)C(=O)c1ccccc1C2=O [YM155]; assay: as above; details: exposure time: 5 days
How it was run: as §1

GEFITINIB [6] = compound: T4, COc1cc2ncnc(Nc3ccc(F)c(Cl)c3)c2cc1OCCCN1CCOCC1 [GEFITINIB]; assay: as above; details: exposure time: 5 days
How it was run: as §1

OSI-906 [7] = compound: T5, C[C@]1(O)C[C@@H](c2nc(-c3ccc4ccc(-c5ccccc5)nc4c3)c3c(N)nccn32)C1 [OSI-906]; assay: as above; details: exposure time: 5 days
How it was run: as §1

CELECOXIB [8] = compound: T6, Cc1ccc(-c2cc(C(F)(F)F)nn2-c2ccc(S(N)(=O)=O)cc2)cc1 [CELECOXIB]; assay: as above; details: exposure time: 5 days
How it was run: as §1

CARBOPLATIN [9] = compound: T7, O=C(O)C1(C(=O)O)CCC1.[NH2-].[NH2-].[Pt+2] [CARBOPLATIN]; assay: as above; details: exposure time: 5 days
How it was run: as §1

[10] = compound: CC(=O)NCC(=O)N1[C@@H]2CC[C@H]1c1ccc(Nc3ncc(C(F)(F)F)c(NC4CCC4)n3)cc12; assay: area under dose-response curve of surviving fraction (unscaled, Aref=0) (surviving fraction x log10(nM)); higher = more resistant; details: exposure time: 5 days; dose range 0.5-1000 nM
How it was run: (§2)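 Each tumour cell line was screened three times in 384-well plates, receiving eight inhibitor concentrations from 0.5 to 1000 nM for five days. CellTiter-Glo luminescence gave viability, normalised to DMSO-only wells. Using the drc R package, surviving fractions were fitted with 3-parameter logistic dose-response curves, and the unscaled activity area over log10 dose (Aref = 0) was taken as the area under the curve.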

PACLITAXEL [11] = compound: T1, PACLITAXEL; assay: as above; details: exposure time: 5 days; dose range 0.5-1000 nM
How it was run: as §2

[12] = compound: CC(=O)c1c(C)c2cnc(Nc3ccc(N4CCNCC4)cn3)nc2n(C2CCCC2)c1=O; assay: as above; details: exposure time: 5 days; dose range 0.5-1000 nM
How it was run: as §2

CAMPTOTHECIN [13] = compound: T2, CAMPTOTHECIN; assay: as above; details: exposure time: 5 days; dose range 0.5-1000 nM
How it was run: as §2

YM155 [14] = compound: T3, YM155; assay: as above; details: exposure time: 5 days; dose range 0.5-1000 nM
How it was run: as §2

GEFITINIB [15] = compound: T4, GEFITINIB; assay: as above; details: exposure time: 5 days; dose range 0.5-1000 nM
How it was run: as §2

OSI-906 [16] = compound: T5, OSI-906; assay: as above; details: exposure time: 5 days; dose range 0.5-1000 nM
How it was run: as §2

CELECOXIB [17] = compound: T6, CELECOXIB; assay: as above; details: exposure time: 5 days; dose range 0.5-1000 nM
How it was run: as §2

CARBOPLATIN [18] = compound: T7, CARBOPLATIN; assay: as above; details: exposure time: 5 days; dose range 0.5-1000 nM
How it was run: as §2

Q: Which results are given for MDAMB468 BREAST?
A: surviving fraction ([1]; 0.5 nM): 0.977 ± 0.023; surviving fraction ([1]; 1 nM): 1.04 ± 0.046; surviving fraction ([1]; 5 nM): 1.05 ± 0.026; surviving fraction ([1]; 10 nM): 0.987 ± 0.041; surviving fraction ([1]; 50 nM): 1.03 ± 0.047; surviving fraction ([1]; 100 nM): 0.507 ± 0.047; surviving fraction ([1]; 500 nM): 0.146 ± 0.01; surviving fraction ([1]; 1000 nM): 0.151 ± 0.018; surviving fraction (PACLITAXEL [2]; 0.5 nM): 0.973 ± 0.024; surviving fraction (PACLITAXEL [2]; 1 nM): 0.771 ± 0.056; surviving fraction (PACLITAXEL [2]; 5 nM): 0.144 ± 0.018; surviving fraction (PACLITAXEL [2]; 10 nM): 0.0737 ± 0.0015; surviving fraction (PACLITAXEL [2]; 50 nM): 0.064 ± 0.001; surviving fraction (PACLITAXEL [2]; 100 nM): 0.0567 ± 0.0091; surviving fraction (PACLITAXEL [2]; 500 nM): 0.057 ± 0.0036; surviving fraction (PACLITAXEL [2]; 1000 nM): 0.0563 ± 0.013; surviving fraction ([3]; 0.5 nM): 1.07 ± 0.03; surviving fraction ([3]; 1 nM): 0.991 ± 0.044; surviving fraction ([3]; 5 nM): 1.07 ± 0.03; surviving fraction ([3]; 10 nM): 1 ± 0.041; surviving fraction ([3]; 50 nM): 1.1 ± 0.038; surviving fraction ([3]; 100 nM): 1.12 ± 0.032; surviving fraction ([3]; 500 nM): 1.05 ± 0.057; surviving fraction ([3]; 1000 nM): 1.03 ± 0.064; surviving fraction (CAMPTOTHECIN [4]; 0.5 nM): 0.872 ± 0.061; surviving fraction (CAMPTOTHECIN [4]; 1 nM): 0.832 ± 0.095; surviving fraction (CAMPTOTHECIN [4]; 5 nM): 0.782 ± 0.094; surviving fraction (CAMPTOTHECIN [4]; 10 nM): 0.546 ± 0.056; surviving fraction (CAMPTOTHECIN [4]; 50 nM): 0.158 ± 0.011; surviving fraction (CAMPTOTHECIN [4]; 100 nM): 0.0843 ± 0.0055; surviving fraction (CAMPTOTHECIN [4]; 500 nM): 0.0373 ± 0.0067; surviving fraction (CAMPTOTHECIN [4]; 1000 nM): 0.0367 ± 0.0025; surviving fraction (YM155 [5]; 0.5 nM): 0.953 ± 0.021; surviving fraction (YM155 [5]; 1 nM): 0.901 ± 0.035; surviving fraction (YM155 [5]; 5 nM): 0.325 ± 0.039; surviving fraction (YM155 [5]; 10 nM): 0.0717 ± 0.0067; surviving fraction (YM155 [5]; 50 nM): 0.034 ± 0.002; surviving fraction (YM155 [5]; 100 nM): 0.0367 ± 0.0031; surviving fraction (YM155 [5]; 500 nM): 0.0353 ± 0.0065; surviving fraction (YM155 [5]; 1000 nM): 0.0377 ± 0.0021; surviving fraction (GEFITINIB [6]; 0.5 nM): 1.11 ± 0.097; surviving fraction (GEFITINIB [6]; 1 nM): 1.08 ± 0.062; surviving fraction (GEFITINIB [6]; 5 nM): 1.14 ± 0.087; surviving fraction (GEFITINIB [6]; 10 nM): 1.11 ± 0.02; surviving fraction (GEFITINIB [6]; 50 nM): 1.07 ± 0.099; surviving fraction (GEFITINIB [6]; 100 nM): 1.028 ± 0.01; surviving fraction (GEFITINIB [6]; 500 nM): 0.588 ± 0.026; surviving fraction (GEFITINIB [6]; 1000 nM): 0.503 ± 0.058; surviving fraction (OSI-906 [7]; 0.5 nM): 0.867 ± 0.12; surviving fraction (OSI-906 [7]; 1 nM): 0.833 ± 0.13; surviving fraction (OSI-906 [7]; 5 nM): 0.95 ± 0.032; surviving fraction (OSI-906 [7]; 10 nM): 0.955 ± 0.092; surviving fraction (OSI-906 [7]; 50 nM): 1.06 ± 0.087; surviving fraction (OSI-906 [7]; 100 nM): 1.03 ± 0.036; surviving fraction (OSI-906 [7]; 500 nM): 0.851 ± 0.09; surviving fraction (OSI-906 [7]; 1000 nM): 0.846 ± 0.019; surviving fraction (CELECOXIB [8]; 0.5 nM): 1.05 ± 0.043; surviving fraction (CELECOXIB [8]; 1 nM): 1.05 ± 0.097; surviving fraction (CELECOXIB [8]; 5 nM): 1.16 ± 0.054; surviving fraction (CELECOXIB [8]; 10 nM): 1.17 ± 0.11; surviving fraction (CELECOXIB [8]; 50 nM): 1.2 ± 0.12; surviving fraction (CELECOXIB [8]; 100 nM): 1.19 ± 0.071; surviving fraction (CELECOXIB [8]; 500 nM): 1.22 ± 0.046; surviving fraction (CELECOXIB [8]; 1000 nM): 1.2 ± 0.098; surviving fraction (CARBOPLATIN [9]; 0.5 nM): 0.973 ± 0.031; surviving fraction (CARBOPLATIN [9]; 1 nM): 0.96 ± 0.067; surviving fraction (CARBOPLATIN [9]; 5 nM): 1.07 ± 0.032; surviving fraction (CARBOPLATIN [9]; 10 nM): 0.991 ± 0.046; surviving fraction (CARBOPLATIN [9]; 50 nM): 1.1 ± 0.1; surviving fraction (CARBOPLATIN [9]; 100 nM): 1.02 ± 0.019; surviving fraction (CARBOPLATIN [9]; 500 nM): 1.08 ± 0.063; surviving fraction (CARBOPLATIN [9]; 1000 nM): 0.975 ± 0.072; area under dose-response curve [10]: 2.44; area under dose-response curve (PACLITAXEL [11]): 0.701; area under dose-response curve [12]: 3.48; area under dose-response curve (CAMPTOTHECIN [13]): 1.41; area under dose-response curve (YM155 [14]): 0.87; area under dose-response curve (GEFITINIB [15]): 3.08; area under dose-response curve (OSI-906 [16]): 3.08; area under dose-response curve (CELECOXIB [17]): 3.83; area under dose-response curve (CARBOPLATIN [18]): 3.37
